Reference: PubChem BioAssay (NCI)
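Briefly, cells in 96-well plates were exposed to five compound concentrations for 48 h, and endpoints were estimated by linear interpolation. Definition used: TGI = concentration required for complete inhibition of growth.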

Columns and labels:
Experiment in all cases: NCI-60 cell line screen, 48 h
HCT-15 colon = tested on: HCT-15 colon
K-562 leukemia = tested on: K-562 leukemia
MDA-MB-435 = tested on: MDA-MB-435
786-0 renal = tested on: 786-0 renal
OVCAR-8 ovarian = tested on: OVCAR-8 ovarian
CCRF-CEM leukemia = tested on: CCRF-CEM leukemia
SK-MEL-5 melanoma = tested on: SK-MEL-5 melanoma
SNB-75 CNS = tested on: SNB-75 CNS
SN12C renal = tested on: SN12C renal
SNB-19 CNS = tested on: SNB-19 CNS
U251 CNS = tested on: U251 CNS
NCI-H23 lung = tested on: NCI-H23 lung
BT-549 breast = tested on: BT-549 breast
KM12 colon = tested on: KM12 colon
SF-268 CNS = tested on: SF-268 CNS
MDA-MB-231 breast = tested on: MDA-MB-231 breast
SW-620 colon = tested on: SW-620 colon
NCI/ADR-RES ovarian = tested on: NCI/ADR-RES ovarian
HOP-62 NSCLC = tested on: HOP-62 NSCLC
IGROV1 ovarian = tested on: IGROV1 ovarian
MOLT-4 leukemia = tested on: MOLT-4 leukemia
HCT-116 colon = tested on: HCT-116 colon
MDA-N = tested on: MDA-N
A498 renal = tested on: A498 renal
HS 578T breast = tested on: HS 578T breast
SK-MEL-2 melanoma = tested on: SK-MEL-2 melanoma
NCI-H226 lung = tested on: NCI-H226 lung
COLO 205 colon = tested on: COLO 205 colon
PC-3 prostate = tested on: PC-3 prostate
SK-MEL-28 melanoma = tested on: SK-MEL-28 melanoma
EKVX NSCLC = tested on: EKVX NSCLC
HL-60(TB) leukemia = tested on: HL-60(TB) leukemia
T-47D breast = tested on: T-47D breast
RPMI-8226 leukemia = tested on: RPMI-8226 leukemia
UACC-62 melanoma = tested on: UACC-62 melanoma
OVCAR-4 ovarian = tested on: OVCAR-4 ovarian
LOX IMVI melanoma = tested on: LOX IMVI melanoma
HT29 colon = tested on: HT29 colon
OVCAR-3 ovarian = tested on: OVCAR-3 ovarian
CAKI-1 renal = tested on: CAKI-1 renal
DU-145 prostate = tested on: DU-145 prostate
MALME-3M melanoma = tested on: MALME-3M melanoma
HCC-2998 colon = tested on: HCC-2998 colon
MCF7 breast = tested on: MCF7 breast
A549 NSCLC = tested on: A549 NSCLC
NCI-H460 lung = tested on: NCI-H460 lung
TK-10 renal = tested on: TK-10 renal
NCI-H522 lung = tested on: NCI-H522 lung
OVCAR-5 ovarian = tested on: OVCAR-5 ovarian
UO-31 renal = tested on: UO-31 renal
SK-OV-3 ovarian = tested on: SK-OV-3 ovarian
SR leukemia = tested on: SR leukemia
SF-295 CNS = tested on: SF-295 CNS
M14 melanoma = tested on: M14 melanoma
RXF 393 renal = tested on: RXF 393 renal
UACC-257 melanoma = tested on: UACC-257 melanoma
SF-539 CNS = tested on: SF-539 CNS
HOP-92 NSCLC = tested on: HOP-92 NSCLC
ACHN renal = tested on: ACHN renal

CN(C)CCNc1ccc(NCC[N+](C)(C)Cc2ccc([N+](=O)[O-])cc2)c2c1C(=O)c1c(O)ccc(O)c1C2=O
TGI (HCT-15 colon): > 100 µM | TGI (K-562 leukemia): > 100 µM | TGI (MDA-MB-435): > 100 µM | TGI (786-0 renal): > 100 µM | TGI (OVCAR-8 ovarian): > 100 µM | TGI (CCRF-CEM leukemia): > 100 µM | TGI (SK-MEL-5 melanoma): 47.5 µM | TGI (SNB-75 CNS): > 100 µM | TGI (SN12C renal): > 100 µM | TGI (SNB-19 CNS): > 100 µM | TGI (U251 CNS): > 100 µM | TGI (NCI-H23 lung): > 100 µM | TGI (BT-549 breast): 40.9 µM | TGI (KM12 colon): > 100 µM | TGI (SF-268 CNS): > 100 µM | TGI (MDA-MB-231 breast): > 100 µM | TGI (SW-620 colon): > 100 µM | TGI (NCI/ADR-RES ovarian): > 100 µM | TGI (HOP-62 NSCLC): > 100 µM | TGI (IGROV1 ovarian): > 100 µM | TGI (MOLT-4 leukemia): 8.8 µM | TGI (HCT-116 colon): > 100 µM | TGI (MDA-N): 69 µM | TGI (A498 renal): > 100 µM | TGI (HS 578T breast): > 100 µM | TGI (SK-MEL-2 melanoma): > 100 µM | TGI (NCI-H226 lung): > 100 µM | TGI (COLO 205 colon): > 100 µM | TGI (PC-3 prostate): > 100 µM | TGI (SK-MEL-28 melanoma): > 100 µM | TGI (EKVX NSCLC): > 100 µM | TGI (HL-60(TB) leukemia): > 100 µM | TGI (T-47D breast): > 100 µM | TGI (RPMI-8226 leukemia): > 100 µM | TGI (UACC-62 melanoma): > 100 µM | TGI (OVCAR-4 ovarian): > 100 µM | TGI (LOX IMVI melanoma): > 100 µM | TGI (HT29 colon): > 100 µM | TGI (OVCAR-3 ovarian): > 100 µM | TGI (CAKI-1 renal): > 100 µM | TGI (DU-145 prostate): > 100 µM

Cc1ccc(S(=O)(=O)NNC(=O)Nc2cccc(C(F)(F)F)c2)cc1
TGI (MALME-3M melanoma): > 100 µM | TGI (HCT-15 colon): > 100 µM | TGI (HCC-2998 colon): > 100 µM | TGI (K-562 leukemia): > 100 µM | TGI (MDA-MB-435): > 100 µM | TGI (786-0 renal): > 100 µM | TGI (OVCAR-8 ovarian): > 100 µM | TGI (CCRF-CEM leukemia): > 100 µM | TGI (SK-MEL-5 melanoma): > 100 µM | TGI (MCF7 breast): > 100 µM | TGI (SNB-75 CNS): 53.7 µM | TGI (SN12C renal): > 100 µM | TGI (SNB-19 CNS): > 100 µM | TGI (A549 NSCLC): > 100 µM | TGI (NCI-H460 lung): > 100 µM | TGI (U251 CNS): > 100 µM | TGI (TK-10 renal): > 100 µM | TGI (NCI-H23 lung): > 100 µM | TGI (NCI-H522 lung): > 100 µM | TGI (OVCAR-5 ovarian): > 100 µM | TGI (KM12 colon): > 100 µM | TGI (UO-31 renal): > 100 µM | TGI (SK-OV-3 ovarian): > 100 µM | TGI (SF-268 CNS): > 100 µM | TGI (MDA-MB-231 breast): > 100 µM | TGI (SW-620 colon): > 100 µM | TGI (NCI/ADR-RES ovarian): > 100 µM | TGI (HOP-62 NSCLC): > 100 µM | TGI (IGROV1 ovarian): > 100 µM | TGI (MOLT-4 leukemia): > 100 µM | TGI (HCT-116 colon): > 100 µM | TGI (SR leukemia): > 100 µM | TGI (MDA-N): > 100 µM | TGI (A498 renal): > 100 µM | TGI (HS 578T breast): > 100 µM | TGI (SF-295 CNS): > 100 µM | TGI (SK-MEL-2 melanoma): > 100 µM | TGI (M14 melanoma): > 100 µM | TGI (NCI-H226 lung): > 100 µM | TGI (RXF 393 renal): > 100 µM | TGI (UACC-257 melanoma): > 100 µM | TGI (COLO 205 colon): > 100 µM | TGI (PC-3 prostate): > 100 µM | TGI (SK-MEL-28 melanoma): > 100 µM | TGI (EKVX NSCLC): > 100 µM | TGI (HL-60(TB) leukemia): > 100 µM | TGI (T-47D breast): > 100 µM | TGI (RPMI-8226 leukemia): > 100 µM | TGI (UACC-62 melanoma): > 100 µM | TGI (OVCAR-4 ovarian): > 100 µM | TGI (HT29 colon): > 100 µM | TGI (SF-539 CNS): > 100 µM | TGI (HOP-92 NSCLC): > 100 µM | TGI (ACHN renal): > 100 µM | TGI (CAKI-1 renal): > 100 µM | TGI (DU-145 prostate): > 100 µM
